For 17 compounds, T/C results are on record in PubChem BioAssay AID260 (DTP/NCI, 2004).

Where “and” joins values, the source holds several entries; their conditions need not be identical. Equal values may be shown once. Toxic doses and inconclusive results are not listed.

This assay has as its system CD2F1 mice, intracerebral L1210 leukemia, survival T/C. The assay can be described thus: NCI In Vivo Anticancer Drug Screen. Data for tumor model L1210 Leukemia (intracerebral) in CD2F1 (CDF1) mice. Conditions: higher = longer survival. The method, then:
The antitumor activity of compounds was measured in mice bearing transplantable tumors. Survival or tumor size were measured and the results are expressed as the measurement made in the treated group (T) divided by the measurement made in the vehicle treated control group (C). The tumor model used in this assay is L1210 Leukemia (intracerebral) in CD2F1 (CDF1) mice

[1] abbreviates: endpoint: median survival time, dose: 16.0 mg/kg/injection, schedule: Q01DX005 (ip), vehicle: saline with Tween-80.
Setting [2] is: endpoint: median survival time, dose: 32.0 mg/kg/injection, schedule: Q01DX005 (ip), vehicle: saline with Tween-80.
Where [3] appears, read: endpoint: median survival time, dose: 64.0 mg/kg/injection, schedule: Q01DX005 (ip), vehicle: saline with Tween-80.
[4] abbreviates: endpoint: median survival time, dose: 128.0 mg/kg/injection, schedule: Q01DX005 (ip), vehicle: saline with Tween-80.
[5] abbreviates: endpoint: mean survival time, dose: 25.0 mg/kg/injection, schedule: Q01DX009 (ip), vehicle: saline.
[6] abbreviates: endpoint: mean survival time, dose: 50.0 mg/kg/injection, schedule: Q01DX009 (ip), vehicle: saline.

`NC(=S)N/N=C/c1ccc(O)cn1`: the T/C is 95 % of control and 105 % of control (endpoint: median survival time, dose: 12.0 mg/kg/injection, schedule: Q01DX005 (ip), vehicle: saline); 107 % of control and 115 % of control (endpoint: median survival time, dose: 24.0 mg/kg/injection, schedule: Q01DX005 (ip), vehicle: saline); 113 % of control and 117 % of control (endpoint: median survival time, dose: 48.0 mg/kg/injection, schedule: Q01DX005 (ip), vehicle: saline); 121 % of control (endpoint: median survival time, dose: 96.0 mg/kg/injection, schedule: Q01DX005 (ip), vehicle: saline).

`CN=NNc1nc[nH]c1C(N)=O`: the T/C runs as follows: under setting [1], 107 % of control; under setting [2], 101 % of control; under setting [3], 112 % of control; under setting [4], 107 % of control; (endpoint: median survival time, dose: 256.0 mg/kg/injection, schedule: Q01DX005 (ip), vehicle: saline with Tween-80) 86 % of control.

In the case of `c1ccc([C@H]2CN3CCSC3=N2)cc1`, the T/C reads like this: (endpoint: median survival time, dose: 5.0 mg/kg/injection, schedule: Q01DX009 (ip), vehicle: saline) 100 % of control and 101 % of control and 103 % of control; (endpoint: median survival time, dose: 10.0 mg/kg/injection, schedule: Q01DX005 (ip), vehicle: saline) 101 % of control; (endpoint: median survival time, dose: 10.0 mg/kg/injection, schedule: Q01DX009 (ip), vehicle: saline) 124 % of control and 100 % of control and 102 % of control; (endpoint: median survival time, dose: 20.0 mg/kg/injection, schedule: Q01DX005 (ip), vehicle: saline) 98 % of control and 116 % of control; (endpoint: median survival time, dose: 20.0 mg/kg/injection, schedule: Q01DX009 (ip), vehicle: saline) 97 % of control (2×) and 104 % of control; (endpoint: median survival time, dose: 40.0 mg/kg/injection, schedule: Q01DX005 (ip), vehicle: saline) 98 % of control and 113 % of control.

Turning to `CC1CC(C)/C(=N/NC(N)=S)C(C(O)CC2CC(=O)NC(=O)C2)C1` (stereo not drawn), the T/C under setting [5] is 101 % of control; the T/C under setting [6] was 100 % of control; the T/C (endpoint: mean survival time, dose: 100.0 mg/kg/injection, schedule: Q01DX009 (ip), vehicle: saline) is 105 % of control; the T/C (endpoint: mean survival time, dose: 200.0 mg/kg/injection, schedule: Q01DX009 (ip), vehicle: saline) is 106 % of control; the T/C (endpoint: mean survival time, dose: 400.0 mg/kg/injection, schedule: Q01DX009 (ip), vehicle: saline) is 101 % of control.

Take `Cc1cn(C2CC(O)C(CO)O2)c(=O)[nH]c1=O` (stereo not drawn): the T/C runs as follows: (endpoint: median survival time, dose: 100.0 mg/kg/injection, schedule: Q01DX009 (ip), vehicle: saline with Tween-80) 104 % of control; (endpoint: median survival time, dose: 100.0 mg/kg/injection, schedule: Q01DX009 (ip), vehicle: saline) 100 % of control and 103 % of control; (endpoint: median survival time, dose: 200.0 mg/kg/injection, schedule: Q01DX009 (ip), vehicle: saline with Tween-80) 107 % of control; (endpoint: median survival time, dose: 200.0 mg/kg/injection, schedule: Q01DX009 (ip), vehicle: saline) 98 % of control and 100 % of control; (endpoint: median survival time, dose: 400.0 mg/kg/injection, schedule: Q01DX009 (ip), vehicle: saline with Tween-80) 109 % of control; (endpoint: median survival time, dose: 400.0 mg/kg/injection, schedule: Q01DX009 (ip), vehicle: saline) 101 % of control. In addition, the T/C is 114 % of control (endpoint: median survival time, dose: 800.0 mg/kg/injection, schedule: Q01DX009 (ip), vehicle: saline with Tween-80); 103 % of control and 113 % of control (endpoint: median survival time, dose: 800.0 mg/kg/injection, schedule: Q01DX009 (ip), vehicle: saline); 106 % of control (endpoint: median survival time, dose: 1600.0 mg/kg/injection, schedule: Q01DX009 (ip), vehicle: saline with Tween-80).

Regarding `C[C@@H]1C[C@@H]([C@H](O)CC2CC(=O)NC(=O)C2)C(=O)[C@@H](C)C1`, the T/C was 114 % of control (endpoint: mean survival time, dose: 10.0 mg/kg/injection, schedule: Q01DX009 (ip), vehicle: saline); 101 % of control (endpoint: mean survival time, dose: 20.0 mg/kg/injection, schedule: Q01DX009 (ip), vehicle: saline); 114 % of control (endpoint: mean survival time, dose: 40.0 mg/kg/injection, schedule: Q01DX009 (ip), vehicle: saline); 106 % of control (endpoint: mean survival time, dose: 80.0 mg/kg/injection, schedule: Q01DX009 (ip), vehicle: saline).

As for `COc1cc([C@@H]2c3cc4c(cc3[C@@H](OC3OC5COC(C)OC5C(O)C3O)[C@H]3COC(=O)[C@H]23)OCO4)cc(OC)c1O` (stereo partly drawn), the T/C is 103 % of control (endpoint: median survival time, dose: 0.5 mg/kg/injection, schedule: Q01DX009 (ip), vehicle: saline); 101 % of control (endpoint: median survival time, dose: 1.0 mg/kg/injection, schedule: Q01DX009 (ip), vehicle: saline); 94 % of control (endpoint: median survival time, dose: 2.0 mg/kg/injection, schedule: Q01DX009 (ip), vehicle: saline); 91 % of control (endpoint: median survival time, dose: 4.0 mg/kg/injection, schedule: Q01DX009 (ip), vehicle: saline); 102 % of control (endpoint: median survival time, dose: 8.0 mg/kg/injection, schedule: Q01DX009 (ip), vehicle: saline).

For the compound `CN(C)N=Nc1ccc([N+](=O)[O-])cc1C(N)=O`, the T/C is 100 % of control under setting [2], 98 % of control under setting [3] and 121 % of control under setting [4].

Turning to `O=C1C=C(N2CC2)C(=O)C=C1N1CC1`, the T/C by setting is: (endpoint: mean survival time, dose: 0.12 mg/kg/injection, schedule: Q01DX009 (ip), vehicle: saline) 102 % of control and 103 % of control and 104 % of control; (endpoint: mean survival time, dose: 0.25 mg/kg/injection, schedule: Q01DX009 (ip), vehicle: saline) 102 % of control and 103 % of control and 108 % of control; (endpoint: mean survival time, dose: 0.5 mg/kg/injection, schedule: Q01DX009 (ip), vehicle: saline) 103 % of control and 106 % of control and 108 % of control; (endpoint: mean survival time, dose: 1.0 mg/kg/injection, schedule: Q01DX009 (ip), vehicle: saline) 89 % of control and 90 % of control and 98 % of control.

Consider `CN(C)C1=C(N2CC2)C(=O)C(N(C)C)=C(N2CC2)C1=O`, for which the T/C was 122 % of control and 110 % of control (endpoint: mean survival time, dose: 0.75 mg/kg/injection, schedule: Q04DX003 (ip), vehicle: saline); 152 % of control and 154 % of control (endpoint: mean survival time, dose: 1.5 mg/kg/injection, schedule: Q04DX003 (ip), vehicle: saline); 156 % of control and 172 % of control (endpoint: mean survival time, dose: 3.0 mg/kg/injection, schedule: Q04DX003 (ip), vehicle: saline).

`O=[N+]([O-])O.[Ga]`: the T/C (endpoint: median survival time, dose: 32.0 mg/kg/injection, schedule: Q01DX005 (ip), vehicle: saline) is 101 % of control; the T/C (endpoint: median survival time, dose: 64.0 mg/kg/injection, schedule: Q01DX005 (ip), vehicle: saline) is 103 % of control and 107 % of control; the T/C (endpoint: median survival time, dose: 128.0 mg/kg/injection, schedule: Q01DX005 (ip), vehicle: saline) is 102 % of control.

Turning to `CN(Cc1ccccc1)/N=N/c1nc[nH]c1C(N)=O`, the T/C under setting [2] was 112 % of control and the T/C (endpoint: median survival time, dose: 512.0 mg/kg/injection, schedule: Q01DX005 (ip), vehicle: saline with Tween-80) is 94 % of control.

In the case of `CN(Cc1cnc2nc(N[Si](C)(C)C)nc(N[Si](C)(C)C)c2n1)c1ccc(C(=O)NC(CCC(=O)O[Si](C)(C)C)C(=O)O[Si](C)(C)C)cc1` (stereo not drawn), the T/C by setting is: (endpoint: median survival time, dose: 1.9 mg/kg/injection, schedule: Q04DX003 (ip), vehicle: saline) 107 % of control; (endpoint: median survival time, dose: 3.8 mg/kg/injection, schedule: Q04DX003 (ip), vehicle: saline) 121 % of control; (endpoint: median survival time, dose: 30.0 mg/kg/injection, schedule: Q04DX003 (ip), vehicle: saline) 150 % of control; (endpoint: median survival time, dose: 60.0 mg/kg/injection, schedule: Q04DX003 (ip), vehicle: saline) 157 % of control.

Consider `C#CCN(C)/N=N/c1nc[nH]c1C(N)=O`, for which the T/C is 118 % of control under setting [1], 124 % of control under setting [3] and 120 % of control under setting [4].

As for `CC1(C)N=C(N)N=C(N)N1c1ccc(CCC(=O)Nc2ccc(S(=O)(=O)F)cc2)c(Cl)c1`, the T/C reads like this: (endpoint: mean survival time, dose: 6.25 mg/kg/injection, schedule: Q01DX009 (ip), vehicle: saline) 94 % of control; (endpoint: mean survival time, dose: 12.5 mg/kg/injection, schedule: Q01DX009 (ip), vehicle: saline) 94 % of control; under setting [5], 94 % of control; under setting [6], 98 % of control.

In the case of `CC1CN1C(=O)NCCCCCCNC(=O)N1CC1C` (stereo not drawn), the T/C runs as follows: (endpoint: median survival time, dose: 1.25 mg/kg/injection, schedule: Q01DX009 (ip), vehicle: Klucel (hydroxypropylcellulose) (HPC)) 103 % of control; (endpoint: median survival time, dose: 2.5 mg/kg/injection, schedule: Q01DX009 (ip), vehicle: Klucel (hydroxypropylcellulose) (HPC)) 102 % of control; (endpoint: median survival time, dose: 5.0 mg/kg/injection, schedule: Q01DX009 (ip), vehicle: Klucel (hydroxypropylcellulose) (HPC)) 112 % of control; (endpoint: median survival time, dose: 10.0 mg/kg/injection, schedule: Q01DX009 (ip), vehicle: Klucel (hydroxypropylcellulose) (HPC)) 120 % of control; (endpoint: median survival time, dose: 20.0 mg/kg/injection, schedule: Q01DX009 (ip), vehicle: Klucel (hydroxypropylcellulose) (HPC)) 120 % of control.

For `C=CCN(C)N=Nc1ccc(C(N)=O)cc1`, the T/C (endpoint: mean survival time, dose: 25.0 mg/kg/injection, schedule: Q01DX009 (ip), vehicle: Klucel (hydroxypropylcellulose) (HPC)) is 98 % of control; the T/C (endpoint: mean survival time, dose: 50.0 mg/kg/injection, schedule: Q01DX009 (ip), vehicle: Klucel (hydroxypropylcellulose) (HPC)) was 108 % of control; the T/C (endpoint: mean survival time, dose: 100.0 mg/kg/injection, schedule: Q01DX009 (ip), vehicle: Klucel (hydroxypropylcellulose) (HPC)) was 118 % of control; the T/C (endpoint: mean survival time, dose: 200.0 mg/kg/injection, schedule: Q01DX009 (ip), vehicle: Klucel (hydroxypropylcellulose) (HPC)) was 118 % of control.
